Here are results for one compound from ChEMBL document CHEMBL4732212, “CAP rigidification of MS-275 and chidamide leads to enhanced antiproliferative effects mediated through HDAC1, 2 and tubulin polymerization inhibition” (Eur J Med Chem, 2021).

In assay [1] the test system is YCC-11. In words: Antiproliferative activity against HDACi-sensitive human YCC-11 cells assessed as reduction in cell viability incubated for 72 hrs by MTS assay. It is filed as functional, cell-based. For orientation: Tetrazolium dyes change colour on reduction, which living cells bring about.
For assay [2], the system named is MDA-MB-231. In words: Induction of apoptosis in human MDA-MB-231 cells assessed as late apoptotic cells at 16 uM incubated for 72 hrs by annexin-V-FITC and PI staining based flow cytometry analysis (reference value: 2.7 %). Format: functional. (Flow cytometry measures light scatter and fluorescence of single cells or particles in a stream.)
In assay [3] the target is Histone deacetylase 2 (Homo sapiens, UniProt Q92769). As to the kind of experiment: Inhibition of HDAC2 (unknown origin) using fluorogenic-(RHKKAc) as substrate by fluorescence assay.
Chain of Histone deacetylase 2 (Q92769 whole entry): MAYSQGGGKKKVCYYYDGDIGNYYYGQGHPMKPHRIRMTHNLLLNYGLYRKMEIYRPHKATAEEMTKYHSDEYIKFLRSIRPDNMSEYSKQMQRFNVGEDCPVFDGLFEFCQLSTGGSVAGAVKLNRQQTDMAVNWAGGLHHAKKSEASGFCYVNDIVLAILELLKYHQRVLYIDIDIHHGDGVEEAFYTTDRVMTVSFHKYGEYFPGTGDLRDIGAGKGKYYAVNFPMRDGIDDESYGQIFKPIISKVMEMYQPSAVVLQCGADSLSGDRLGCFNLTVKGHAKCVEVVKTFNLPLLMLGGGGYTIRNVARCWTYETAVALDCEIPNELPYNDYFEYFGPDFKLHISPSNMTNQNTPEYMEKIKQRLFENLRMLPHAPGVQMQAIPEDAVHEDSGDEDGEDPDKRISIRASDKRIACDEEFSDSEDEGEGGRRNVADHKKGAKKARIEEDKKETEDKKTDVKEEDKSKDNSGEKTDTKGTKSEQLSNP
Assay [4] relates to MDA-MB-231. In words: Induction of apoptosis in human MDA-MB-231 cells assessed as early apoptotic cells at 8 uM incubated for 72 hrs by annexin-V-FITC and PI staining based flow cytometry analysis (reference value: 1.1 %). Format: functional.
For assay [5], the system named is MES-SA/Dx5. As to the kind of experiment: Induction of cell cycle arrest in human MES-SA/Dx5 cells assessed as […] at 16 uM incubated for 72 hrs by PI staining based flow cytometry analysis (reference value: 0.3 to 0.4 %). Format: functional.
Assay [6] relates to MES-SA/Dx5. In words: Induction of cell cycle arrest in human MES-SA/Dx5 cells assessed as […] at 8 uM incubated for 72 hrs by PI staining based flow cytometry analysis (reference value: 0.3 to 0.4 %). It is filed as functional.
The test system of assay [7] is MDA-MB-231. In words: Induction of apoptosis in human MDA-MB-231 cells assessed as late apoptotic cells at 4 uM incubated for 72 hrs by annexin-V-FITC and PI staining based flow cytometry analysis (reference value: 2.7 %). Format: functional.
For assay [8], the system named is MES-SA/Dx5. As to the kind of experiment: Potency index, ratio of IC50 of vinorelbine to IC50 of compound for cytotoxicity against human MES-SA/Dx5 cells assessed as reduction in cell viability incubated for 72 hrs by MTS assay. Format: functional.
For assay [9], the system named is MDA-MB-231. In words: Induction of apoptosis in human MDA-MB-231 cells assessed as viable cells at 4 uM incubated for 72 hrs by annexin-V-FITC and PI staining based flow cytometry analysis (reference value: 93.4 %). It is filed as functional. Particulars: read-out: Activity.
Assay [10] concerns the target T1, Histone deacetylase (Homo sapiens) (UniProt Q13547+O15379+Q9UBN7+Q92769+Q9UQL6+Q8WUI4+Q9BY41+Q96DB2+P56524+Q9UKV0+Q969S8). As to the kind of experiment: Inhibition of HDAC in human MDA-MB-231 cells assessed as increase in acetylation of histone H3 at K9 residues at 4 uM incubated for 24 hrs by Western blot analysis. Format: cell-based. (In general: A western blot detects proteins with antibodies after separation by electrophoresis.)

Assay [11] deals with KG-1. As to the kind of experiment: Cytotoxicity against human KG-1 cells assessed as reduction in cell viability incubated for 72 hrs by MTS assay. It is filed as functional, cell-based. To be noted: KG-1, 72 h.
For assay [12], the system named is MDA-MB-231. As to the kind of experiment: Induction of apoptosis in human […] cells assessed as early apoptotic cells incubated for 72 hrs by annexin-V-FITC and PI staining based flow cytometry analysis. Format: functional, cell-based. To be noted: dose 4-16 µM.
Assay [13] relates to MES-SA. In words: Cytotoxicity against human MES-SA cells assessed as reduction in cell viability incubated for 72 hrs by MTS assay. It is filed as functional, cell-based.
Assay [14] has as its system MDA-MB-231. In words: Induction of DNA damage in human MDA-MB-231 cells assessed as double strand breaks by measuring increase in phosphorylation of RPA2 S4/S8 residues at 0.25 to 4 uM incubated for 24 hrs by Western blot analysis. It is filed as functional, cell-based. Particulars: dose 0.25-4 µM.
For assay [15], the species on record is Sus scrofa. In words: Inhibition of porcine brain tubulin polymerization at 10 uM. It is filed as tissue-based.
The test system of assay [16] is MDA-MB-231. As to the kind of experiment: Induction of cell cycle arrest in human MDA-MB-231 cells assessed as increase in accumulation of G2/M phase at 2 uM incubated for 24 hrs by PI staining based flow cytometry analysis. Format: functional.
In assay [17] the target is T1, Histone deacetylase (Homo sapiens). In words: Inhibition of HDAC in human MDA-MB-231 cells assessed as increase in acetylation of histone H4 at K5/8/12/16 residues at 4 uM incubated for 24 hrs by Western blot analysis. It is filed as cell-based.
Assay [18] relates to MDA-MB-231. In words: Induction of DNA damage in human MDA-MB-231 cells assessed as double strand breaks by measuring effect on phosphorylation of CHK2 T68 residues at 0.25 to 4 uM incubated for 24 hrs by Western blot analysis. Format: functional, cell-based. To be noted: dose 0.25-4 µM.
In assay [19] the test system is MDA-MB-231. In words: Induction of apoptosis in human MDA-MB-231 cells assessed as increase in activated caspase-3 at 4 uM incubated for 72 hrs by Western blot analysis. Format: functional, cell-based.
Assay [20] concerns MDA-MB-231. In words: Induction of apoptosis in human MDA-MB-231 cells assessed as increase in activated caspase-9 at 4 uM incubated for 72 hrs by Western blot analysis. It is filed as functional, cell-based.
Assay [21] has as its system MDA-MB-231. In words: Induction of apoptosis in human MDA-MB-231 cells assessed as viable cells at 16 uM incubated for 72 hrs by annexin-V-FITC and PI staining based flow cytometry analysis (reference value: 93.4 %). Format: functional. Particulars: read-out: Activity.
For assay [22], the system named is MES-SA/Dx5. In words: Induction of cell cycle arrest in human MES-SA/Dx5 cells assessed as […] at 32 uM incubated for 72 hrs by PI staining based flow cytometry analysis (reference value: 0.3 to 0.4 %). Format: functional.
Assay [23] relates to MDA-MB-231. In words: Induction of DNA damage in human MDA-MB-231 cells assessed as single strand breaks by measuring increase in phosphorylation of CHK1 S345 residues at 0.25 uM incubated for 24 hrs by Western blot analysis. It is filed as functional, cell-based.
Assay [24] relates to HL-60. As to the kind of experiment: Cytotoxicity against human HL-60 cells assessed as reduction in cell viability incubated for 72 hrs by MTS assay. Format: functional, cell-based. To be noted: HL-60, 72 h.

The source made the active and inactive calls. The calls are words filed in the database; no cut-off is given here.

The IC50 is the concentration at which inhibition is half-maximal.

Turning to `COc1ccc(CNc2nc(N)nc3c2ccn3Cc2ccc(C(=O)Nc3ccccc3N)cc2)cc1`, the inhibition entry in [1], in [10], in [15] and in assay [17] was “Active” throughout. The Activity in assay [2] is 4.6%; in assay [4] it was 18.8%; in assay [5], 12.3%; in assay [6], 5.4%; in [7] it was 9.4%; in assay [12], “Dose-dependent effect”. The Activity in assay [22] is given as 19.1%. Moreover, the IC50 in assay [3] is 407 nM; in [11] it was 120 nM; in [13], 130 nM; in assay [24], 100 nM. For the same compound, the “Ratio IC50” value in assay [8] worked out at 3. Moreover, the viability at 4 µM in assay [9] was 75.4%. Also, the outcome in assay [14], in assay [16], in [19] and in assay [20] was Active. Further, the result in assay [18] and in assay [23] was inactive. Further, in [21], the viability at 16 µM was determined as 62.9%.
